EC50 data for 37 molecules are collected here from US20080139558A1, “QUINOLONES USEFUL AS INDUCIBLE NITRIC OXIDE SYNTHASE INHIBITORS” (KALYPSYS, INC., priority 2006, published 2008).

T1 sequence (P35228 whole entry): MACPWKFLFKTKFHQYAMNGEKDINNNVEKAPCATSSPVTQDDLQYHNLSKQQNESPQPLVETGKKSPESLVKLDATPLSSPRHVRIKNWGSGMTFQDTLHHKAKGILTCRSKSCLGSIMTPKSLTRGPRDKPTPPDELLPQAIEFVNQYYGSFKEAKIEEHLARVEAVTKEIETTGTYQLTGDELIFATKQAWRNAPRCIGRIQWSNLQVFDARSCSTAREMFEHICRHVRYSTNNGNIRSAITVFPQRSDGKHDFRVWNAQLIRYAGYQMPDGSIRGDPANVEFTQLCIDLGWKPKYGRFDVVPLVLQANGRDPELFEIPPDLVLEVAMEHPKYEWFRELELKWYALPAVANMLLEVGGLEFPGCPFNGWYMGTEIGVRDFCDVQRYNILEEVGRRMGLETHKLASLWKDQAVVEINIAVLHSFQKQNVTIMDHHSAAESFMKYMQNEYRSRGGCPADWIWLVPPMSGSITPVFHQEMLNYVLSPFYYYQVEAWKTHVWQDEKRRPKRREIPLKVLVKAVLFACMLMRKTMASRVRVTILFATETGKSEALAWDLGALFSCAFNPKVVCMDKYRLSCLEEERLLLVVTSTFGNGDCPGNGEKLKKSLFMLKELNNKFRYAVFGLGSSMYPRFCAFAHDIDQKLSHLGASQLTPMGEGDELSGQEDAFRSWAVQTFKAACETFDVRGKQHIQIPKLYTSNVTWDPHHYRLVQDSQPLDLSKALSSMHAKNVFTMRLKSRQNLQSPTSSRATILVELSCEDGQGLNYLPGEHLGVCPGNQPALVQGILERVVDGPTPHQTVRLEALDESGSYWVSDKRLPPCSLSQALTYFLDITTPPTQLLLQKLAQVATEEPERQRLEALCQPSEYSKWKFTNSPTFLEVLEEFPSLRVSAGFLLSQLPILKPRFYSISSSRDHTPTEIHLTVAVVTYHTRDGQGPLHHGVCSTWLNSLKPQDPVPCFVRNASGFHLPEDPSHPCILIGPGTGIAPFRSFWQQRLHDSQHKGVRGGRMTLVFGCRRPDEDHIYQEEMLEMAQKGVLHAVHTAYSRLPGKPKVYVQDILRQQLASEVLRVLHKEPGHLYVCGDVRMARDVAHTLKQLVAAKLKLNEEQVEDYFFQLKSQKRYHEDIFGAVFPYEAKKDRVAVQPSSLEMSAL

The test addresses T1, human iNOS (Homo sapiens, UniProt P35228).
T1 construct: expressed in transfected cells; host or cells: HEK293
Briefly: DAN assay of nitric oxide production (hiNOS). The format is cell-based. The conditions noted are these: enzyme expressed in HEK293 cells transiently transfected with human iNOS. The procedure, abridged: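 Human iNOS transiently expressed in HEK293 cells; NO production quantified as nitrite via 2,3-diaminonaphthalene reaction forming fluorescent naphthotriazole.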
`Cc1ncsc1C(=O)N(Cc1cc(=O)[nH]c2c(F)c(F)ccc12)c1cccc(C#N)c1` [Example 186, N-(3-Cyanophenyl)-N-((7,8-difluoro-2-oxo-1,2-dihydroquinolin-4-yl)methyl)-4-methylthiazole-5-carboxamide] gave an EC50 of at most 5 µM.

In turn, `Cc1ncsc1C(=O)N(Cc1cc(=O)[nH]c2c(F)cccc12)c1cccc(Cl)c1F` [Example 187, N-(3-Chloro-2-fluorophenyl)-N-((8-fluoro-2-oxo-1,2-dihydroquinolin-4-yl)methyl)-4-methylthiazole-5-carboxamide] came in with an EC50 of at most 5 µM.

For the molecule `CC(C)S(=O)(=O)N(Cc1cc(=O)[nH]c2c(F)c(F)ccc12)c1cccc(Cl)c1` [Example 188, N-(3-Chlorophenyl)-N-((7,8-difluoro-2-oxo-1,2-dihydroquinolin-4-yl)methyl)propane-2-sulfonamide], the EC50 was at most 5 µM.

For `Cc1nc(C)c(S(=O)(=O)N(Cc2cc(=O)[nH]c3c(F)c(F)ccc23)c2cccc(Cl)c2)s1` [Example 189, N-(3-Chlorophenyl)-N-((7,8-difluoro-2-oxo-1,2-dihydroquinolin-4-yl)methyl)-2,4-dimethylthiazole-5-sulfonamide], the EC50 is at most 5 µM.

`Cc1nc2ccccc2n1Cc1cc(=O)[nH]c2c(F)c(F)ccc12` [Example 190, 7,8-Difluoro-4-((2-methyl-1H-benzo[d]imidazol-1-yl)methyl)quinolin-2(1H)-one]: the EC50 is over 5 µM.

Take `O=c1cc(Cn2c(-c3cncs3)nc3ccccc32)c2ccc(F)c(F)c2[nH]1` [Example 191, 7,8-Difluoro-4-((2-(thiazol-5-yl)-1H-benzo[d]imidazol-1-yl)methyl)quinolin-2(1H)-one]: the half-maximal effective concentration (EC50) was at most 5 µM.

`CSc1nc2ccccc2n1Cc1cc(=O)[nH]c2c(F)c(F)ccc12` [Example 192, 7,8-Difluoro-4-((2-(methylthio)-1H-benzo[d]imidazol-1-yl)methyl)quinolin-2(1H)-one] registered an EC50 of at most 5 µM.

`O=c1cc(Cn2c(-c3cscn3)nc3ccccc32)c2ccc(F)c(F)c2[nH]1` [Example 193, 7,8-Difluoro-4-((2-(thiazol-4-yl)-1H-benzo[d]imidazol-1-yl)methyl)quinolin-2(1H)-one] registered an EC50 of over 5 µM.

The molecule `O=c1cc(Cn2c(CN3CCOCC3)nc3ccccc32)c2ccc(F)c(F)c2[nH]1` [Example 194, 7,8-Difluoro-4-((2-(morpholinomethyl)-1H-benzo[d]imidazol-1-yl)methyl)quinolin-2(1H)-one] showed a concentration giving a half-maximal response (EC50) of over 5 µM.

Molecule `CC(C)Cc1nc2ccccc2n1Cc1cc(=O)[nH]c2c(F)c(F)ccc12` [Example 195, 7,8-Difluoro-4-((2-isobutyl-1H-benzo[d]imidazol-1-yl)methyl)quinolin-2(1H)-one] came in with an EC50 of at most 5 µM.

Take `O=c1cc(Cn2c(-c3cccc(F)c3)nc3ccccc32)c2ccc(F)c(F)c2[nH]1` [Example 196, 7,8-Difluoro-4-((2-(3-fluorophenyl)-1H-benzo[d]imidazol-1-yl)methyl)quinolin-2(1H)-one]: the 50% effective concentration (EC50) was at most 5 µM.

The molecule `O=c1cc(Cn2c(-c3ccc(F)cc3)nc3ccccc32)c2ccc(F)c(F)c2[nH]1` [Example 197, 7,8-Difluoro-4-((2-(4-fluorophenyl)-1H-benzo[d]imidazol-1-yl)methyl)quinolin-2(1H)-one] came in with a 50% effective concentration (EC50) of over 5 µM.

Molecule `CN(C)Cc1nc2ccccc2n1Cc1cc(=O)[nH]c2c(F)c(F)ccc12` [Example 198, 4-((2-((Dimethylamino)methyl)-1H-benzo[d]imidazol-1-yl)methyl)-7,8-difluoroquinolin-2(1H)-one] registered a concentration for a half-maximal effect (EC50) of over 5 µM.

In turn, `Cc1cnccc1-c1nc2ccccc2n1Cc1cc(=O)[nH]c2c(F)c(F)ccc12` [Example 199, 7,8-Difluoro-4-((2-(3-methylpyridin-4-yl)-1H-benzo[d]imidazol-1-yl)methyl)quinolin-2(1H)-one] returned a concentration for a half-maximal effect (EC50) of at most 5 µM.

The molecule `O=c1cc(Cn2c(N3CCOCC3)nc3ccccc32)c2ccc(F)c(F)c2[nH]1` [Example 200, 7,8-Difluoro-4-((2-morpholino-1H-benzo[d]imidazol-1-yl)methyl)quinolin-2(1H)-one] came in with a 50% effective concentration (EC50) of over 5 µM.

`CN(C)c1nc2ccccc2n1Cc1cc(=O)[nH]c2c(F)c(F)ccc12` [Example 201, 4-((2-(Dimethylamino)-1H-benzo[d]imidazol-1-yl)methyl)-7,8-difluoroquinolin-2(1H)-one]: the EC50 is over 5 µM.

Molecule `CC(C)(C)c1nc2ccccc2n1Cc1cc(=O)[nH]c2c(F)c(F)ccc12` [Example 202, 4-((2-tert-Butyl-1H-benzo[d]imidazol-1-yl)methyl)-7,8-difluoroquinolin-2(1H)-one] showed a half-maximal effective concentration (EC50) of over 5 µM.

`O=c1cc(Cn2c(Cl)nc3ccccc32)c2ccc(F)c(F)c2[nH]1` [Example 203, 4-((2-Chloro-1H-benzo[d]imidazol-1-yl)methyl)-7,8-difluoroquinolin-2(1H)-one] gave an EC50 of over 5 µM.

With `O=c1cc(Cn2c(C3CCCCC3)nc3ccccc32)c2ccc(F)c(F)c2[nH]1` [Example 204, 4-((2-Cyclohexyl-1H-benzo[d]imidazol-1-yl)methyl)-7,8-difluoroquinolin-2(1H)-one], the EC50 was over 5 µM.

With `CC(C)(C)OC(=O)N1CCC(c2nc3ccccc3n2Cc2cc(=O)[nH]c3c(F)c(F)ccc23)CC1` [Example 205, tert-Butyl 4-(1-((7,8-difluoro-2-oxo-1,2-dihydroquinolin-4-yl)methyl)-1H-benzo[d]imidazol-2-yl)piperidine-1-carboxylate], the concentration for a half-maximal effect (EC50) is over 5 µM.

As to `O=c1cc(Cn2c(C3CCC3)nc3ccccc32)c2ccc(F)c(F)c2[nH]1` [Example 207, 4-((2-Cyclobutyl-1H-benzo[d]imidazol-1-yl)methyl)-7,8-difluoroquinolin-2(1H)-one], the EC50 is at most 5 µM.

In turn, `Cc1nccn1-c1nc2ccccc2n1Cc1cc(=O)[nH]c2c(F)c(F)ccc12` [Example 208, 7,8-Difluoro-4-((2-(2-methyl-1H-imidazol-1-yl)-1H-benzo[d]imidazol-1-yl)methyl)quinolin-2(1H)-one] gave an EC50 of at most 5 µM.

With `O=c1cc(Cn2c(C3CCCC3)nc3ccccc32)c2ccc(F)c(F)c2[nH]1` [Example 209, 4-((2-Cyclopentyl-1H-benzo[d]imidazol-1-yl)methyl)-7,8-difluoroquinolin-2(1H)-one], the EC50 was at most 5 µM.

`CC(C)CCc1nc2ccccc2n1Cc1cc(=O)[nH]c2c(F)c(F)ccc12` [Example 211, 7,8-Difluoro-4-((2-isopentyl-1H-benzo[d]imidazol-1-yl)methyl)quinolin-2(1H)-one] had a concentration for a half-maximal effect (EC50) of at most 5 µM.

In turn, `O=c1cc(Cn2c(C3CCNCC3)nc3ccccc32)c2ccc(F)c(F)c2[nH]1` [Example 212, 7,8-Difluoro-4-((2-(piperidin-4-yl)-1H-benzo[d]imidazol-1-yl)methyl)quinolin-2(1H)-one] registered a concentration for a half-maximal effect (EC50) of over 5 µM.

Regarding `O=c1cc(Cn2c(CCC3CCCCC3)nc3ccccc32)c2ccc(F)c(F)c2[nH]1` [Example 213, 4-((2-(2-Cyclohexylethyl)-1H-benzo[d]imidazol-1-yl)methyl)-7,8-difluoroquinolin-2(1H)-one], the EC50 is over 5 µM.

In turn, `O=c1cc(Cn2c(Cc3ccccc3)nc3ccccc32)c2ccc(F)c(F)c2[nH]1` [Example 214, 4-((2-Benzyl-1H-benzo[d]imidazol-1-yl)methyl)-7,8-difluoroquinolin-2(1H)-one] returned an EC50 of at most 5 µM.

For `O=c1cc(Cn2c(CC3CCCC3)nc3ccccc32)c2ccc(F)c(F)c2[nH]1` [Example 215, 4-((2-(Cyclopentylmethyl)-1H-benzo[d]imidazol-1-yl)methyl)-7,8-difluoroquinolin-2(1H)-one], the EC50 was at most 5 µM.

Consider `Cc1ccccc1Cc1nc2ccccc2n1Cc1cc(=O)[nH]c2c(F)c(F)ccc12` [Example 216, 7,8-Difluoro-4-((2-(2-methylbenzyl)-1H-benzo[d]imidazol-1-yl)methyl)quinolin-2(1H)-one], for which the EC50 was over 5 µM.

`CCC(CC)c1nc2ccccc2n1Cc1cc(=O)[nH]c2c(F)c(F)ccc12` [Example 217, 7,8-Difluoro-4-((2-(pentan-3-yl)-1H-benzo[d]imidazol-1-yl)methyl)quinolin-2(1H)-one] showed a concentration for a half-maximal effect (EC50) of at most 5 µM.

In turn, `O=c1cc(Cn2c(-n3ccnc3)nc3ccccc32)c2ccc(F)c(F)c2[nH]1` [Example 218, 4-((2-(1H-Imidazol-1-yl)-1H-benzo[d]imidazol-1-yl)methyl)-7,8-difluoroquinolin-2(1H)-one] displayed a concentration for a half-maximal effect (EC50) of at most 5 µM.

Take `CCCc1nc2ccccc2n1Cc1cc(=O)[nH]c2c(F)c(F)ccc12` [Example 219, 7,8-Difluoro-4-((2-propyl-1H-benzo[d]imidazol-1-yl)methyl)quinolin-2(1H)-one]: the EC50 was at most 5 µM.

Regarding `CCc1nc2ccccc2n1Cc1cc(=O)[nH]c2c(F)c(F)ccc12` [Example 221, 7,8-Difluoro-4-((2-ethyl-1H-benzo[d]imidazol-1-yl)methyl)quinolin-2(1H)-one], the EC50 was at most 5 µM.

Regarding `Cc1cccc2c1nc(C(C)C)n2Cc1cc(=O)[nH]c2c(F)c(F)ccc12` [Example 224, 7,8-Difluoro-4-((2-isopropyl-4-methyl-1H-benzo[d]imidazol-1-yl)methyl)quinolin-2(1H)-one], the concentration giving a half-maximal response (EC50) was at most 5 µM.

`Cc1cccc2c1nc(CC(C)C)n2Cc1cc(=O)[nH]c2c(F)c(F)ccc12` [Example 225, 7,8-Difluoro-4-((2-isobutyl-4-methyl-1H-benzo[d]imidazol-1-yl)methyl)quinolin-2(1H)-one] yielded an EC50 of at most 5 µM.

The molecule `Cc1c(-c2nc3ccccc3n2Cc2cc(=O)[nH]c3c(F)c(F)ccc23)ncn1C` [Example 226, 4-((2-(1,5-Dimethyl-1H-imidazol-4-yl)-1H-benzo[d]imidazol-1-yl)methyl)-7,8-difluoroquinolin-2(1H)-one] showed an EC50 of over 5 µM.

`CC(C)c1nc2cc(F)c(F)cc2n1Cc1cc(=O)[nH]c2c(F)c(F)ccc12` [Example 229, 7,8-Difluoro-4-((5,6-difluoro-2-isopropyl-1H-benzo[d]imidazol-1-yl)methyl)quinolin-2(1H)-one] displayed a 50% effective concentration (EC50) of over 5 µM.

For orientation: EC50 means the concentration needed to bring the measured effect to its halfway point. Read a low EC50 as a more potent agent.
